# Biological target: farnesyl transferase (Homo sapiens, UniProt P49354+P49356)
# Experiment: Farnesyl transferase inhibition, [3H]-farnesylation of biotinylated K-ras C-terminal peptide (SPA assay)
# Format: biochemical
# Settings: In vitro inhibitory activity (K-Ras) IC50, K-Ras substrate; 60 min at 37° C.; mean of two IC50 values
# Description: The farnesyl transferase activity was measured by the amount farnesylated of K-ras substrate or of substrate derived from the peptide corresponding to its C-terminal part, the farnesyl group being introduced by farnesyl pyrophosphate (FPP).
# It was then brought into contact with PVT-streptavidin (Amersham)® beads and was quantified by proximity scintillation (SPA assay) between the tritium and the PVT beads, by virtue of the streptavidin/biotin interaction.
# Experimentally, farnesyl transferase purified according to the appended protocol was diluted, for this assay, to a concentration such that a consumption of substrates of less than 30% was obtained.
# The reaction, carried out in Optiplates 96° microtitration plates, was initiated by the enzyme and lasted sixty minutes at 37° C. It was stopped by addition of 150 μl of mixture of a blocking buffer at pH 4 composed of 0.2M H3 PO4, 1.5 mM MgCl2, 0.5% (w/v) BSA, 0.05% (w/v) sodium azide containing 200 μg of PVT-streptavidin beads.
# After slow agitation for thirty minutes (in order to remove the chemiluminescence), the plates were read as [^3 H]CPM in a Top Count® (Packard) scintillation counter for microplates, where they were converted into [^3 H]DPM from a range of coloured agent attenuating the scintillation (quenching).
# The percentages of inhibition were calculated with respect to an inhibitor-free control after subtraction from all the values of that of a blank which only contained the substrates and the buffer.
# The IC50 values were calculated or measured, from the inhibitions obtained at nine different concentrations, with Enzfitter® or Grafit® software. The IC50 values which appear in the results are the mean of measurements and calculations of two IC50 values.
row,SMILES,IC50 [nM]
1,"C=C(C(=O)N1C[C@@H]2[C@@]3(c4ccsc4)CC[C@@H](c4ccccc43)[C@]2(C(=O)O)C1)c1ccccc1OC (racemic) [Example 58, (3aRS,4SR,9SR,9aRS)-4,9-ethano-2-[2-(2-methoxyphenyl)propenoyl]-9-(3-thienyl)-2,3,3a,4,9,9a-hexahydro-1H-benzo[f]isoindole-3a-carboxylic Acid]",138

# Same assay, conditions: K-Ras substrate; 60 min at 37° C.; mean of two IC50 values; read-out: In vitro inhibitory activity (K-Ras) IC50
row,SMILES,IC50 [nM]
1,"C=C(C(=O)N1C[C@@H]2[C@@]3(c4c[nH]c5ccccc45)CC[C@@H](c4ccccc43)[C@]2(C(=O)OC)C1)c1ccccc1OC (racemic) [Example 55, methyl (3aRS,4SR,9SR,9aRS)-4,9-ethano-2-[2-(2-methoxyphenyl)propenoyl]-9-(3-indolyl)-2,3,3a,4,9,9a-hexahydro-1H-benzo[f]isoindole-3a-carboxylate]",558
2,"C=C(C(=O)N1C[C@H]2[C@@]3(c4ccc(C)s4)CC[C@@H](c4ccccc43)[C@]2(C(=O)OC)C1)c1ccccc1OC (racemic) [Example 47, methyl (3aRS,4SR,9SR,9aRS)-4,9-ethano-2-[2-(2-methoxyphenyl)propenoyl]-9-(5-methyl-2-thienyl)-2,3,3a,4,9,9a-hexahydro-1H-benzo[f]isoindole-3a-carboxylate]",207
3,"C=C(C(=O)N1C[C@H]2[C@@]3(c4ccc(C)cc4)CC[C@H](c4ccccc43)[C@@]2(C(=O)NCc2cccnc2)C1)c1ccccc1OC (relative stereo) [Example 17, (3aRS,4SR,9SR,9aRS)-4,9-ethano-2-[2-(2-methoxyphenyl)propenoyl]-9-(4-methylphenyl)-2,3,3a,4,9,9a-hexahydro-1H-benzo[f]isoindole-3a-N-(3-pyridylmethyl)carboxamide]",235
4,"C=C(C(=O)N1C[C@H]2[C@@]3(c4ccc(C)cc4)CC[C@H](c4ccccc43)[C@@]2(C(=O)NNc2ccccc2)C1)c1ccccc1OC (relative stereo) [Example 23, (3aRS,4SR,9SR,9aRS)-4,9-ethano-2-[2-(2-methoxyphenyl)propenoyl]-9-(4-methylphenyl)-2,3,3a,4,9,9a-hexahydro-1H-benzo[f]isoindole-3a-N'-phenylcarbohydrazide]",277
5,"COc1ccccc1CC(=O)N1C[C@@H]2[C@]3(c4ccc(C(C)C)cc4)CC[C@@H](c4ccccc43)[C@]2(C(=O)O)C1 (racemic) [Example 56, (3aRS,4SR,9SR,9aRS)-4,9-ethano-9-(4-isopropylphenyl)-2-[(2-methoxyphenyl)acetyl]-2,3,3a,4,9,9a-hexahydro-1H-benzo[f]isoindole-3a-carboxylic Acid]",589
6,"C=C(C(=O)N1C[C@@H]2[C@]3(c4ccc(C(F)(F)F)cc4)CC[C@@H](c4ccccc43)[C@]2(C(=O)NNC(=O)c2ccccc2)C1)c1ccccc1OC (relative stereo) [Example 43, (3aRS,4SR,9SR,9aRS)-4,9-ethano-2-[2-(2-methoxyphenyl)propenoyl]-9-[4-(trifluoromethyl)phenyl]-2,3,3a,4,9,9a-hexahydro-1H-benzo[f]isoindole-3a-N'-benzoylcarbohydrazide]",590
7,"COC(=O)[C@@]12CN(C(=O)Cc3ccccc3OC)C[C@@H]1[C@]1(c3ccc(C)c(C)c3)CC[C@H]2c2ccccc21 (racemic) [Example 11, Methyl (3aRS,4SR,9SR,9aRS)-9-(3,4-dimethylphenyl)-4,9-ethano-2-[(2-methoxyphenyl)acetyl]-2,3,3a,4,9,9a-hexahydro-1H-benzo[f]isoindole-3a-carboxylate]",345
8,"C=C(C(=O)N1C[C@@H]2[C@]3(c4ccc(C#N)cc4)CC[C@@H](c4ccccc43)[C@]2(C(=O)O)C1)c1ccccc1OC (racemic) [Example 95, (3aRS,4SR,9SR,9aRS)-9-(4-cyanophenyl)-4,9-ethano-2-[2-(2-methoxyphenyl)propenoyl]-2,3,3a,4,9,9a-hexahydro-1H-benzo[f]isoindole-3a-carboxylic Acid]",177
9,"C=C(C(=O)N1C[C@H]2[C@@]3(c4ccc(C)cc4)CC[C@H](c4ccccc43)[C@@]2(C(=O)NNc2ccccc2C)C1)c1ccccc1OC (relative stereo) [Example 29, (3aRS,4SR,9SR,9aRS)-4,9-ethano-2-[2-(2-methoxyphenyl)propenoyl]-9-(4-methylphenyl)-2,3,3a,4,9,9a-hexahydro-1H-benzo[f]isoindole-3a-N'-(2-methylphenyl)carbohydrazide]",140
10,"C=C(C(=O)N1C[C@@H]2[C@]3(c4ccc5ccccc5c4)CC[C@@H](c4ccccc43)[C@]2(C(=O)OC)C1)c1ccccc1OC (racemic) [Example 45, methyl (3aRS,4SR,9SR,9aRS)-4,9-ethano-2-[2-(2-methoxyphenyl)propenoyl]-9-(2-naphthyl)-2,3,3a,4,9,9a-hexahydro-1H-benzo[f]isoindole-3a-carboxylate]",181

# The remaining lines, values ahead:
row,IC50 [nM],SMILES
1,< 20,"C=C(C(=O)N1C[C@@H]2[C@]3(c4ccc5c(c4)CCO5)CC[C@@H](c4ccccc43)[C@]2(C(=O)NCc2cccnc2)C1)c1ccccc1OC (relative stereo) [Example 63, (3aRS,4SR,9SR,9aRS)-9-(2,3-dihydrobenzofuran-5-yl)-4,9-ethano-2-[2-(2-methoxyphenyl)propenoyl]-2,3,3a,4,9,9a-hexahydro-1H-benzo[f]isoindole-3a-N-(3-pyridylmethyl)carboxamide]"
2,8,"C=C(C(=O)N1C[C@@H]2[C@]3(c4cccc(Br)c4)CC[C@@H](c4ccccc43)[C@]2(C(=O)O)C1)c1ccccc1OC (racemic) [Example 84, (3aRS,4SR,9SR,9aRS)-9-(3-bromophenyl)-4,9-ethano-2-[2-(2-methoxyphenyl)propenoyl]-2,3,3a,4,9,9a-hexahydro-1H-benzo[f]isoindole-3a-carboxylic Acid]"
3,67,"C=C(C(=O)N1C[C@@H]2[C@]3(c4ccc5c(c4)OCO5)CC[C@@H](c4ccccc43)[C@]2(C(=O)O)C1)c1ccccc1OC (racemic) [Example 70, (3aRS,4SR,9SR,9aRS)-9-(1,3-benzodioxol-5-yl)-4,9-ethano-2-[2-(2-methoxyphenyl)propenoyl]-2,3,3a,4,9,9a-hexahydro-1H-benzo[f]isoindole-3a-carboxylic Acid]"
4,8,"C=C(C(=O)N1C[C@H]2[C@@]3(c4ccc(OC)cc4)CC[C@H](c4ccccc43)[C@@]2(C(=O)O)C1)c1ccccc1OC (single isomer, unassigned) [Example 75, Dextrorotatory Enantiomer of (3aRS,4SR,9SR,9aRS)-4,9-ethano-9-(4-methoxyphenyl)-2-[2-(2-methoxyphenyl)propenoyl]-2,3,3a,4,9,9a-hexahydro-1H-benzo[f]isoindole-3a-carboxylic Acid]"
5,45,"C=C(C(=O)N1C[C@H]2[C@@]3(c4ccc(OC)cc4)CC[C@H](c4ccccc43)[C@@]2(C(=O)NNc2cccnc2)C1)c1ccccc1OC (relative stereo) [Example 79, (3aRS,4SR,9SR,9aRS)-4,9-ethano-9-(4-methoxyphenyl)-2-[2-(2-methoxyphenyl)propenoyl]-2,3,3a,4,9,9a-hexahydro-1H-benzo[f]isoindole-3a-N'-(3-pyridyl)carbohydrazide]"
6,78,"C=C(C(=O)N1C[C@@H]2[C@]3(c4ccc(OC)c(C)c4)CC[C@@H](c4ccccc43)[C@]2(C(=O)O)C1)c1ccccc1OC (racemic) [Example 54, (3aRS,4SR,9SR,9aRS)-4,9-ethano-2-[2-(2-methoxyphenyl)propenoyl]-9-(4-methoxy-3-methylphenyl)-2,3,3a,4,9,9a-hexahydro-1H-benzo[f]isoindole-3a-carboxylic Acid]"
7,99,"C=C(C(=O)N1C[C@@H]2[C@]3(c4ccccc4C)CC[C@@H](c4ccccc43)[C@]2(C(=O)O)C1)c1ccccc1OC (racemic) [Example 38, (3aRS,4SR,9SR,9aRS)-4,9-ethano-2-[2-(2-methoxyphenyl)propenoyl]-9-(2-methylphenyl)-2,3,3a,4,9,9a-hexahydro-1H-benzo[f]isoindole-3a-carboxylic Acid]"
8,131,"C=C(C(=O)N1C[C@H]2[C@@]3(c4ccc(C)cc4)CC[C@H](c4ccccc43)[C@@]2(C(=O)NN(C)C)C1)c1ccccc1OC (relative stereo) [Example 22, (3aRS,4SR,9SR,9aRS)-4,9-ethano-2-[2-(2-methoxyphenyl)propenoyl]-9-(4-methylphenyl)-2,3,3a,4,9,9a-hexahydro-1H-benzo[f]isoindole-3a-N',N'-dimethylcarbohydrazide]"
9,83,"C=C(C(=O)N1C[C@@H]2[C@]3(c4ccc(C(F)(F)F)cc4)CC[C@@H](c4ccccc43)[C@]2(C(=O)O)C1)c1ccccc1OC (racemic) [Example 40, (3aRS,4SR,9SR,9aRS)-4,9-ethano-2-[2-(2-methoxyphenyl)propenoyl]-9-[4-(trifluoromethyl)phenyl]-2,3,3a,4,9,9a-hexahydro-1H-benzo[f]isoindole-3a-carboxylic Acid]"
10,40,"C=C(C(=O)N1C[C@@H]2[C@]3(c4ccc(OC)c(O)c4)CC[C@@H](c4ccccc43)[C@]2(C(=O)O)C1)c1ccccc1OC (racemic) [Example 97, (3aRS,4SR,9SR,9aRS)-4,9-ethano-9-(3-hydroxy-4-methoxyphenyl)-2-[2-(2-methoxyphenyl)propenoyl]-2,3,3a,4,9,9a-hexahydro-1H-benzo[f]isoindole-3a-carboxylic Acid]"
